Data taken from patent US12435087B2, “Modulators of DCN-1 and methods of use thereof” (Cellarity, Inc., priority 2023, dated 2025).
Where two headings read alike, the source gives them in different places.

How the values were obtained:
[1] = molecular target: DCN1 (DCUND1) protein PONY domain (Homo sapiens (Human), UniProt Q96GG9); assay: TR-FRET assay (binding to DCN-1, displacement of FAM-labeled probe)
In short: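 Compounds read at 1, 5 and 24 h, 0.1% final DMSO, by TR-FRET between terbium-streptavidin on biotinylated DCN1 PONY domain (E. coli) and a FAM-tagged non-covalent inhibitor probe. Two setups used, 5 nM protein with 20 nM labelled probe, or 0.31 nM protein with 100 nM labelled plus 800 nM unlabelled probe; buffer had TritonX and 200 mM NaCl. % activity relative to high (with probe) and low (without probe) controls.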

DCN1 protein = DCN1 protein (Homo sapiens (Human), UniProt Q96GG9); assay: Intact protein MS analysis with the RapidFire-TOF system (covalent adduct formation); type: binding; details: 400 nM DCN1, incubated at room temperature for 3 hours
Description: (§1) DCN1 protein, His-TEV-DCN1, were expressed in E. Coli. The His-tagged protein was first purified with an Ni-NTA column. The His-tag was cleaved using His-tag TEV protease and the His-tags were removed using a second Ni-NTA column. Protein purity was verified with SDS-PAGE and intact MS. DCN1 was dissolved in a buffer containing 25 mM Tris-HCl, 200 mM NaCl, and 1 mM DTT at 400 nM. 11 concentrations of compounds were added to the DCN1 solution and incubated at room temperature for 3 hours, unless otherwise specified. The reaction plates were quenched by adding 0.2% formic acid. Quenched assay plates were analyzed with an Agilent RapidFire 360 system connected to an Agilent 6545 Q-TOF mass spectrometer equipped with an AJS source. 10 μL of sample volume was loaded onto a custom packed cartridge (4 μL, PLRP-S 30 μm/1000 Å pore; Optimize Technologies) with loading buffer (ddH2O with 0.09% (vol/vol) formic acid and 0.01% (vol/vol) trifluoroacetic acid; 1.25 ml/min) for 6 seconds before being eluted directly into the mass spectrometer in elution buffer (80% acetonitrile with 0.09% (vol/vol) formic acid and 0.01% (vol/vol) trifluoroacetic acid; 0.5 ml/min) for 7 seconds. The cartridge was re-equilibrated with loading buffer for 1 second before collection of the next sample. The Q-TOF was operated in TOF-only positive ionization mode set to the following parameters: Gas Temp=350 C, Drying Gas=7 l/min, Nebulizer=50 psi, Sheath Gas Temp=400 C, Sheath Gas Flow=12 l/min, VCap=4000 V, Nozzle Voltage=1000 V, Fragmentor=125 V, Skimmer=65 V and Oct 1 RF Vpp=750V. Raw MS data files were deconvoluted and analyzed using the Agilent MassHunter Bioconfirm software package to identify both parent protein and expected compound adduct mass signatures.
An MS assay was performed to evaluate the ability of the compounds to covalently modify DCN-1.
as §1, with “Vcap=4000” for “VCap=4000”

[2] = 24 hr after treatment with compound, read-out: TR FRET IC50 24 hr
[3] = TR FRET IC50 1 hr (nM), 1 hr after treatment with compound
[4] = read-out: TR FRET IC50 1 hr, 1 hr after treatment with compound

Chain of DCN1 protein (Q96GG9 whole entry): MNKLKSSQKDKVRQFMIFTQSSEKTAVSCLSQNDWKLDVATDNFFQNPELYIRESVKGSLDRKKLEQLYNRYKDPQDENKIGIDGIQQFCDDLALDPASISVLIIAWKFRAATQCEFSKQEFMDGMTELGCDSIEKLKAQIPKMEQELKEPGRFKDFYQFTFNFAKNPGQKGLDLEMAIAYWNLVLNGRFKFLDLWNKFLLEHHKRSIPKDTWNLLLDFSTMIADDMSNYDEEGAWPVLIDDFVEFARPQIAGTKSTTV
Chain of DCN1 (DCUND1) protein PONY domain (Q96GG9 60-248): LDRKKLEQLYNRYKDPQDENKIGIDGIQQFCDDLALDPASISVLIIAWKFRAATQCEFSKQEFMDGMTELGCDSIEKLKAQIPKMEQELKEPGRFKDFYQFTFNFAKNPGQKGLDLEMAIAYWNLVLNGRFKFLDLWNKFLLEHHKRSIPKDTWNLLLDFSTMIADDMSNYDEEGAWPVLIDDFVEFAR

CCN1C(=O)[C@H](NC(=O)c2cccc(C(F)(F)F)c2)[C@@H](c2cccc(NC(=O)/C(C#N)=C/C(C)C)c2)c2c(C)nn(-c3ccccc3)c21 (racemic) [Compound I-46, rac-N-((4R,5S)-4-(3-((E)-2-cyano-4-methylpent-2-enamido)phenyl)-7-ethyl-3-methyl-6-oxo-1-phenyl-4,5,6,7-tetrahydro-1H-pyrazolo[3,4-b]pyridin-5-yl)-3-(trifluoromethyl)benzamide]
IC50 [1, 2]: ≤ 200 nM
IC50 [1, 3]: ≤ 200 nM
Emax (DCN1 protein): 80 to 100%

CCN1C(=O)[C@H](NC(=O)c2cccc(C(F)(F)F)c2)[C@@H](c2cccc(NC(=O)/C=C/CN3CCOCC3)c2)c2c(C)nn(-c3ccccc3)c21 (racemic) [Compound I-47]
IC50 [1, 2]: 1000 to 3000 nM
IC50 [1, 4]: > 3000 nM
Emax (DCN1 protein): 0 to 30%

C=C(CN1CCC(F)(F)C1)C(=O)Nc1cccc([C@@H]2c3c(C)nn(-c4ccccc4)c3N(CC)C(=O)[C@H]2NC(=O)c2cccc(C(F)(F)F)c2)c1 (racemic) [Compound I-60]
IC50 [1, 2]: ≤ 200 nM
IC50 [1, 4]: ≤ 200 nM
Emax (DCN1 protein): 80 to 100%

C=C(CN1CC2(COC2)C1)C(=O)Nc1cccc([C@@H]2c3c(C)nn(-c4ccccc4)c3N(CC)C(=O)[C@H]2NC(=O)c2cccc(C(F)(F)F)c2)c1 (racemic) [Compound I-64]
IC50 [1, 2]: ≤ 200 nM
IC50 [1, 4]: ≤ 200 nM
Emax (DCN1 protein): 80 to 100%

C=C(CN1CCOCC1)C(=O)Nc1cccc([C@H]2c3c(C)nn(-c4ccccc4)c3N(CC)C(=O)[C@@H]2NC(=O)c2ccn(C(F)(F)F)n2)c1 (racemic) [Compound I-65]
IC50 [1, 2]: ≤ 200 nM
IC50 [1, 4]: ≤ 200 nM
Emax (DCN1 protein): 80 to 100%

CCN1C(=O)[C@H](NC(=O)c2cccc(C(F)(F)F)c2)[C@@H](c2cccc(NC(=O)/C(C#N)=C/C3CC3)c2)c2c(C)nn(-c3ccccc3)c21 (racemic) [Compound I-68, rac-N-((4R,5S)-4-(3-((E)-2-cyano-3-cyclopropylacrylamido)phenyl)-7-ethyl-3-methyl-6-oxo-1-phenyl-4,5,6,7-tetrahydro-1H-pyrazolo[3,4-b]pyridin-5-yl)-3-(trifluoromethyl)benzamide]
IC50 [1, 2]: 200 to 1000 nM
IC50 [1, 3]: ≤ 200 nM
Emax (DCN1 protein): 80 to 100%

CCN1C(=O)[C@H](NC(=O)c2cccc(C(F)(F)F)c2)[C@@H](c2cccc(NC(=O)/C(C#N)=C/C(C)(C)C)c2)c2c(C)nn(-c3ccccc3)c21 (racemic) [Compound I-69, ˜{N}—[˜{rac}-(4˜{S},5˜{R})-7-ethyl-3-methyl-6-oxo-1-phenyl-4-[3-[[˜{rac}-(˜{E})-2-cyano-4,4-dimethyl-pent-2-enoyl]amino]phenyl]-4,5-dihydropyrazolo[3,4-b]pyridin-5-yl]-3-(trifluoromethyl)benzamide]
IC50 [1, 2]: 200 to 1000 nM
IC50 [1, 3]: 200 to 1000 nM
Emax (DCN1 protein): 80 to 100%

C=CC(=O)Nc1cccc([C@H]2c3c(C)nn(-c4ccccc4)c3N(CC)C(=O)[C@@H]2NC(=O)c2cccc(C(F)(F)F)c2)c1 (racemic) [Compound I-77]
IC50 [1, 2]: 200 to 1000 nM
IC50 [1, 3]: 1000 to 3000 nM
Emax (DCN1 protein): 80 to 100%

CCN1C(=O)[C@H](NC(=O)c2cccc(C(F)(F)F)c2)[C@@H](c2cccc(NC(=O)C3=CCC3)c2)c2c(C)nn(-c3ccccc3)c21 (racemic) [Compound I-78, ˜{N}—[˜{rac}-(4˜{S},5˜{R})-4-[3-(cyclobutene-1-carbonylamino)phenyl]-7-ethyl-3-methyl-6-oxo-1-phenyl-4,5-dihydropyrazolo[3,4-b]pyridin-5-yl]-3-(trifluoromethyl)benzamide]
IC50 [1, 2]: 200 to 1000 nM
IC50 [1, 3]: 1000 to 3000 nM
Emax (DCN1 protein): 80 to 100%

CCN1C(=O)[C@H](NC(=O)c2cccc(C(F)(F)F)c2)[C@@H](c2cccc(NC(=O)CC#N)c2)c2c(C)nn(-c3ccccc3)c21 (racemic) [Compound I-103]
IC50 [1, 2]: 1000 to 3000 nM
IC50 [1, 3]: 1000 to 3000 nM
Emax (DCN1 protein): 0 to 30%

CCN1C(=O)[C@H](NC(=O)c2cccc(C(F)(F)F)c2)[C@@H](c2cccc(N3CC=CS3(=O)=O)c2)c2c(C)nn(-c3ccccc3)c21 (racemic) [Compound I-130, rac-N-((4R,5S)-4-(3-(1,1-dioxidoisothiazol-2 (3H)-yl)phenyl)-7-ethyl-3-methyl-6-oxo-1-phenyl-4,5,6,7-tetrahydro-1H-pyrazolo[3,4-b]pyridin-5-yl)-3-(trifluoromethyl)benzamide]
IC50 [1, 2]: 200 to 1000 nM
IC50 [1, 3]: > 3000 nM
Emax (DCN1 protein): 0 to 30%

CCN1C(=O)[C@H](NC(=O)c2cccc(C(F)(F)F)c2)[C@@H](c2cccc(NC(=O)C#CCN(C)C)c2)c2c(C)nn(-c3ccccc3)c21 (racemic) [Compound I-133, rac-N-((4R,5S)-4-(3-(4-(dimethylamino)but-2-ynamido)phenyl)-7-ethyl-3-methyl-6-oxo-1-phenyl-4,5,6,7-tetrahydro-1H-pyrazolo[3,4-b]pyridin-5-yl)-3-(trifluoromethyl)benzamide]
IC50 [1, 2]: ≤ 200 nM
IC50 [1, 3]: ≤ 200 nM
Emax (DCN1 protein): 80 to 100%

C=C(CN1CCC1)C(=O)Nc1cccc([C@H]2c3c(C)nn(-c4ccccc4)c3N(CC)C(=O)[C@@H]2NC(=O)c2cccc(C(F)(F)F)c2)c1 (racemic) [Compound I-137]
IC50 [1, 2]: ≤ 200 nM
IC50 [1, 4]: ≤ 200 nM
Emax (DCN1 protein): 80 to 100%

CCN1C(=O)[C@H](NC(=O)c2cccc(C(F)(F)F)c2)[C@@H](c2cccc(NC(=O)/C=C/C(=O)OC)c2)c2c(C)nn(-c3ccccc3)c21 (racemic) [Compound I-141]
IC50 [1, 2]: ≤ 200 nM
IC50 [1, 4]: ≤ 200 nM
Emax (DCN1 protein): 80 to 100%

C/C=C(\CN1CCOCC1)C(=O)Nc1cccc([C@@H]2c3c(C)nn(-c4ccccc4)c3N(CC)C(=O)[C@H]2NC(=O)c2cccc(C(F)(F)F)c2)c1 (racemic) [Compound I-142]
IC50 [1, 2]: ≤ 200 nM
IC50 [1, 3]: ≤ 200 nM
Emax (DCN1 protein): 80 to 100%

C=C(CN(C)C)C(=O)Nc1cccc([C@H]2c3c(C)nn(-c4ccccc4)c3N(CC)C(=O)[C@@H]2NC(=O)c2cccc(C(F)(F)F)c2)c1 (racemic) [Compound I-146]
IC50 [1, 2]: ≤ 200 nM
IC50 [1, 4]: ≤ 200 nM
Emax (DCN1 protein): 80 to 100%

CC#CC(=O)Nc1ccccc1[C@H]1c2cnn(-c3ccccc3)c2N(CC)C(=O)[C@@H]1NC(=O)c1cccc(C(F)(F)F)c1 (racemic) [Compound I-159]
IC50 [1, 2]: > 3000 nM
IC50 [1, 3]: > 3000 nM
Emax (DCN1 protein): 0 to 30%

C/C=C(\CN1CCN(C2COC2)CC1)C(=O)Nc1cccc([C@@H]2c3c(C)nn(-c4ccccc4)c3N(CC)C(=O)[C@H]2NC(=O)c2nccc(C(F)(F)F)n2)c1 (racemic) [Compound I-229]
IC50 [1, 2]: ≤ 200 nM
IC50 [1, 3]: ≤ 200 nM
Emax (DCN1 protein): 80 to 100%

C=C(CN1CCOCC1)C(=O)Nc1cccc([C@H]2c3c(C)nn(-c4ccccc4)c3N(CC)C(=O)C2NC(=O)c2cccc(C(F)(F)F)c2)c1 (stereo in doubt) [Compound I-83, N-((4S,5R)-7-ethyl-3-methyl-4-(3-(2-(morpholinomethyl)acrylamido)phenyl)-6-oxo-1-phenyl-4,5,6,7-tetrahydro-1H-pyrazolo[3,4-b]pyridin-5-yl)-3-(trifluoromethyl)benzamide]
IC50 [1, 2]: ≤ 200 nM
IC50 [1, 4]: ≤ 200 nM
% Adduct Formation (MS Emax) (DCN1 protein): ++ (MS Emax % adduct formation greater than 30.0 and less than or equal to 80.0)

C=C(CN1CCC1)C(=O)NCc1cccc([C@@H]2c3cnn(-c4ccccc4)c3N(CC)C(=O)[C@H]2NC(=O)c2cccc(C(F)(F)F)c2)c1 [Compound I-1]
IC50 [1, 2]: ≤ 200 nM
IC50 [1, 4]: ≤ 200 nM
Emax (DCN1 protein): 80 to 100%
